Experimental findings from publication PMC9820167, “Design and Synthesis of Conformationally Flexible Scaffold as Bitopic Ligands for Potent D3-Selective Antagonists” (International Journal of Molecular Sciences, 2022) are described below.

Assay in all cases: PDSP binding screen
Test [1] addresses Serotonin 5-HT2A (Homo sapiens, UniProt P28223).
The target of test [2] is Benzodiazepine receptor (PBR) (Rattus norvegicus, UniProt P16257). The note with it: for Ki (nM) or % inhibition at 10 µM: Benzodiazepine receptor (PBR): PDSP, HCl salts.
The target in test [3] is Opioid MOR (Homo sapiens, UniProt P35372). To be noted: for inhibition at 10 µM: read-out: Ki (nM) or % inhibition at 10 µM: MOR.
The target of test [4] is Serotonin 5-HT1B (Homo sapiens, UniProt P28222). The note with it: for inhibition at 10 µM: read-out: Ki (nM) or % inhibition at 10 µM: 5-HT1B.
Test [5] deals with T1, Muscarinic M1 (Homo sapiens, UniProt P11229).
T1 sequence (P11229 1-460): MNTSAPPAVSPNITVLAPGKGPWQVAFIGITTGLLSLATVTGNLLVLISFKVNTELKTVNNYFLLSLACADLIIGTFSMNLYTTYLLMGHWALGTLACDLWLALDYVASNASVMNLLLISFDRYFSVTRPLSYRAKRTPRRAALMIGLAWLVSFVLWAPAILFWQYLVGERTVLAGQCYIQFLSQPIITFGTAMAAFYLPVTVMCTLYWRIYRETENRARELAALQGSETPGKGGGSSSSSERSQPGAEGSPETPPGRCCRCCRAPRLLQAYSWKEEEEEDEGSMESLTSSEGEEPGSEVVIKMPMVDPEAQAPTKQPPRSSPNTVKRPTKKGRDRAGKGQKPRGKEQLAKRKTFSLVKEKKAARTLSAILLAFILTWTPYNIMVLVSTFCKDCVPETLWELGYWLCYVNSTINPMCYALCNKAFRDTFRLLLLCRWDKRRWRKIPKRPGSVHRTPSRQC
The note with it: for inhibition at 10 µM: read-out: Ki (nM) or % inhibition at 10 µM: M1.

Test [6] has as its target Serotonin 5-HT6 (Homo sapiens, UniProt P50406).
For test [7], the target named is T2, Adrenergic alpha2C (Homo sapiens, UniProt P18825).
T2 sequence (P18825 1-462): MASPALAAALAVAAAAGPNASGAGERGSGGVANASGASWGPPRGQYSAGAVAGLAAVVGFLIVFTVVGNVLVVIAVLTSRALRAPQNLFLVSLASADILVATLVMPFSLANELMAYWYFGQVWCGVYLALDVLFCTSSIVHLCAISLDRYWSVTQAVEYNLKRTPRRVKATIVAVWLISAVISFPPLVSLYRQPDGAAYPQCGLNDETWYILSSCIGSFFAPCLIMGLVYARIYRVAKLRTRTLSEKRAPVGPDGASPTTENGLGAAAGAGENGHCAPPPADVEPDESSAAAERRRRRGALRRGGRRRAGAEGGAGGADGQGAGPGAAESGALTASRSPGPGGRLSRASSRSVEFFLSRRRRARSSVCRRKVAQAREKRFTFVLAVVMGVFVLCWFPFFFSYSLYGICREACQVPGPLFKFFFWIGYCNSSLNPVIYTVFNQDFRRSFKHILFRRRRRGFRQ

Test [8] deals with Serotonin 5-HT2B (Homo sapiens, UniProt P41595).
Test [9] concerns the target Dopamine D3 (Homo sapiens, UniProt P35462).
In test [10] the target is T3, Serotonin 5-HT3 (Homo sapiens, UniProt P46098).
T3 sequence (P46098 24-478): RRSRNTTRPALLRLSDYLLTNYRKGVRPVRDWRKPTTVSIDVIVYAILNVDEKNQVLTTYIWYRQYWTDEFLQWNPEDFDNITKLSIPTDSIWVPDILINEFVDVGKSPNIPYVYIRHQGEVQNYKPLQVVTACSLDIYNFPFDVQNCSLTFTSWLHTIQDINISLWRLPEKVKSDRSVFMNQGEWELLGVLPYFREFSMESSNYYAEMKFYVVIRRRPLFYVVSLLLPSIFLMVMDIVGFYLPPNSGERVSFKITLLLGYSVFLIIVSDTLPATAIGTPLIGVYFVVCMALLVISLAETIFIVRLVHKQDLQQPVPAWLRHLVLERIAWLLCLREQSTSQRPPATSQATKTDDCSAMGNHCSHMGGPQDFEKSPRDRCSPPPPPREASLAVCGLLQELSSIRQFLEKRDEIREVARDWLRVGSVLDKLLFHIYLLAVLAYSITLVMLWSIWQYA

The target in test [11] is T4, Adrenergic alpha2A (Homo sapiens, UniProt P08913).
T4 sequence (P08913 1-465): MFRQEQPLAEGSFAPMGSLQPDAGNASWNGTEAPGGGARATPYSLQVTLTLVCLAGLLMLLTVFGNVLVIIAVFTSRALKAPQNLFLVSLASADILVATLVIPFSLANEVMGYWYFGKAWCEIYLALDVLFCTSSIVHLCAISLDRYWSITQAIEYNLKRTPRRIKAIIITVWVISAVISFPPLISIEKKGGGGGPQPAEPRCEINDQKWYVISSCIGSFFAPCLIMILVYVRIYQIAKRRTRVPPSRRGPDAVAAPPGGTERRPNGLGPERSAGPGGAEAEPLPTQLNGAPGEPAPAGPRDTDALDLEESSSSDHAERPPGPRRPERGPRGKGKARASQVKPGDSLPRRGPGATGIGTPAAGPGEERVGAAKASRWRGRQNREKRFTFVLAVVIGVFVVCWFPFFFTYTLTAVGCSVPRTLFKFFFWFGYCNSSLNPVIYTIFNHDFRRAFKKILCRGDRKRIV

Test [12] concerns the target BZP Rat Brain Site. The note with it: HCl salts.
The target of test [13] is Opioid KOR (Homo sapiens, UniProt P41145). To be noted: for inhibition at 10 µM: read-out: Ki (nM) or % inhibition at 10 µM: KOR.
Test [14] addresses Dopamine active transporter (DAT) (Homo sapiens, UniProt Q01959).

Chain of Opioid KOR (P41145 whole entry): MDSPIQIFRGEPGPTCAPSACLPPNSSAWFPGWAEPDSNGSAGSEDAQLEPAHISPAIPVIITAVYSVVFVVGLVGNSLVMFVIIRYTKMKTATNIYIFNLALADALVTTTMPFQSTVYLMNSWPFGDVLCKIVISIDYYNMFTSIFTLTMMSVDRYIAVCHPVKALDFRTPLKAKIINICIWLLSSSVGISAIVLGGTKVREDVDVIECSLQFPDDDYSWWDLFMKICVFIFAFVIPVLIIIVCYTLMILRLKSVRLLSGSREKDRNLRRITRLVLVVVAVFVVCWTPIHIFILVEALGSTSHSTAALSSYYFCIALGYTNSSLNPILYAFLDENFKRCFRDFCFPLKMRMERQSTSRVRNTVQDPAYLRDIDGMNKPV
Chain of Serotonin 5-HT2A (P28223 whole entry): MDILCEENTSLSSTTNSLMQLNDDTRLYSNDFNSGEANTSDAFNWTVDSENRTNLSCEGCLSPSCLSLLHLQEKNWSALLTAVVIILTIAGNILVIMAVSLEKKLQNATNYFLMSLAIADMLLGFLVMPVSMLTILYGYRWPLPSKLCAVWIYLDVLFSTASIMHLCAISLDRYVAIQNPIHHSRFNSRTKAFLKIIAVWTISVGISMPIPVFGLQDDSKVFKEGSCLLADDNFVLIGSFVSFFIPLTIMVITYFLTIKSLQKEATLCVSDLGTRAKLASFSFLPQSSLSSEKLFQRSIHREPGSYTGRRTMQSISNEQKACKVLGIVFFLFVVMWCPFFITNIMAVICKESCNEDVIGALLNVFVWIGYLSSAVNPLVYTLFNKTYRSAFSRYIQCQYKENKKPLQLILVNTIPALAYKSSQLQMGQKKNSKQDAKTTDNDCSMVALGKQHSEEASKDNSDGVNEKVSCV
Chain of Serotonin 5-HT2B (P41595 whole entry): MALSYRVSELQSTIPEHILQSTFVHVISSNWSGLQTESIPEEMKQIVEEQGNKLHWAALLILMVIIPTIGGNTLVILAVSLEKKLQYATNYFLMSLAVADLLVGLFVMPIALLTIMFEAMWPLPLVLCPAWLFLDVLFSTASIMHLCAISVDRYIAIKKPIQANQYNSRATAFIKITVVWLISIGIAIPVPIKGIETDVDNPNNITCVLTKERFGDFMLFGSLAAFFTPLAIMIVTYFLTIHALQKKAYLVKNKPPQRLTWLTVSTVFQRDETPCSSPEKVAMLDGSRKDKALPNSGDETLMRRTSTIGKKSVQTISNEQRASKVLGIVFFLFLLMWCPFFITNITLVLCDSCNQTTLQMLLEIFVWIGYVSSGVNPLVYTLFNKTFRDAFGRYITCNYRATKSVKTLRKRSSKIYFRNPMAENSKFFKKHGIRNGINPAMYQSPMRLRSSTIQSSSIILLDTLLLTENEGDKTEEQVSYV
Chain of Dopamine D3 (P35462 whole entry): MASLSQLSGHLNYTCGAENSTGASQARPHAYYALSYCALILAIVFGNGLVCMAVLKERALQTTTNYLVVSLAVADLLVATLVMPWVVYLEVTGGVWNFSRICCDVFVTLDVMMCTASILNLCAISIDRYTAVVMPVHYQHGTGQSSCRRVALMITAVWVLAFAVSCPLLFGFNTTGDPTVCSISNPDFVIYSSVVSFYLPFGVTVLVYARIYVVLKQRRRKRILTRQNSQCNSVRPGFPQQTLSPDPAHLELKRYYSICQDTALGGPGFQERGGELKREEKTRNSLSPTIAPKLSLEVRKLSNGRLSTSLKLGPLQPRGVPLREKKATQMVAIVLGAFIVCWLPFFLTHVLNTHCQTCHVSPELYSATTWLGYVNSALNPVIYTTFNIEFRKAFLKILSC
Chain of Serotonin 5-HT6 (P50406 whole entry): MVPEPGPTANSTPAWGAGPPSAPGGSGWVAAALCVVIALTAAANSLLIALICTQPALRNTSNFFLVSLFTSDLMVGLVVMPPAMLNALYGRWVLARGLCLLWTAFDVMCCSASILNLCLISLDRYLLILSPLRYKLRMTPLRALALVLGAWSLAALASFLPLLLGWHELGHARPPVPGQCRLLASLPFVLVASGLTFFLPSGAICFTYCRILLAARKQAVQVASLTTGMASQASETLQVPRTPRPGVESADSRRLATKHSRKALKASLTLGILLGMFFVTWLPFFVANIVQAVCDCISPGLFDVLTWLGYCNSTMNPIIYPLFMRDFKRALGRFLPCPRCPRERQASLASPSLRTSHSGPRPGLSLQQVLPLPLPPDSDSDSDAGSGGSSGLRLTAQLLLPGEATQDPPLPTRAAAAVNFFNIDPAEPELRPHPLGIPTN
Chain of Opioid MOR (P35372 whole entry): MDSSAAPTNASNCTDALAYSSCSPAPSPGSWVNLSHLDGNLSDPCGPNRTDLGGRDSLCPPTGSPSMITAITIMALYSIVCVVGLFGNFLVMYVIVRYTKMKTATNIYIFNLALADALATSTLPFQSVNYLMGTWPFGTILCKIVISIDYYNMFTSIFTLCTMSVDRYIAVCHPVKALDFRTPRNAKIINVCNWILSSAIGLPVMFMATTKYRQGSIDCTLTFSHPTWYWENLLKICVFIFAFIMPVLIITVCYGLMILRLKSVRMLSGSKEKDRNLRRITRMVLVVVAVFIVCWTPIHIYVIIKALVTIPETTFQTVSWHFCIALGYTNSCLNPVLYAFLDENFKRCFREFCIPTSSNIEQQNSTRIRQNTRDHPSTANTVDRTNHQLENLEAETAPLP
Chain of Dopamine active transporter (DAT) (Q01959 whole entry, species assumed): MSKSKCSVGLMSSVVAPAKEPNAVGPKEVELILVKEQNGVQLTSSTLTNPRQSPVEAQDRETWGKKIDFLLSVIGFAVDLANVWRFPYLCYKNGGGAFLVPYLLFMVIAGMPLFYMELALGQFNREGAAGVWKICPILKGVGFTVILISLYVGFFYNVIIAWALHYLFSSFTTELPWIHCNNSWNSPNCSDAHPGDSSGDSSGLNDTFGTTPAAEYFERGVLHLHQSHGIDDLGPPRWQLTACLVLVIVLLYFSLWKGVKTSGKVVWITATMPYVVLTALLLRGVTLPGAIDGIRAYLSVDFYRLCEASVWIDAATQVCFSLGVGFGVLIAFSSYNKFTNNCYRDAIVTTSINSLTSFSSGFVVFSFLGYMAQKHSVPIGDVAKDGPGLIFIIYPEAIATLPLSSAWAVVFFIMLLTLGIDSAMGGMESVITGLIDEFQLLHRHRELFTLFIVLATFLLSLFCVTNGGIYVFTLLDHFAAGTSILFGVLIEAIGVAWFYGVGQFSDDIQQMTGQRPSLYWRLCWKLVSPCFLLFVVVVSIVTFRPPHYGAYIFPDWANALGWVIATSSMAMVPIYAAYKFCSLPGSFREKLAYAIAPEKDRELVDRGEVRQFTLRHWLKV
Chain of Serotonin 5-HT1B (P28222 whole entry): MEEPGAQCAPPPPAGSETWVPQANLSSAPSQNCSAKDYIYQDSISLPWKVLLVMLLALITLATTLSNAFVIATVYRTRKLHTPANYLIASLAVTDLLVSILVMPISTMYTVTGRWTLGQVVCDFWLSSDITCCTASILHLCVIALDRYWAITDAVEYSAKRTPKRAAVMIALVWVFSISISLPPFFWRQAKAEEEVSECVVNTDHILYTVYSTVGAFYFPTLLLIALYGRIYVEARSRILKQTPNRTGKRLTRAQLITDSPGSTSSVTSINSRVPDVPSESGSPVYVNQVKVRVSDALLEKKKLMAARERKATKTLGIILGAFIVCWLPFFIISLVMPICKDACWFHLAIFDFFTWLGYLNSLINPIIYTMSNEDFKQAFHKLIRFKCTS

Consider `CCN(CCCNC(=O)c1ccc(-c2cccs2)cc1)CCNC(=O)c1cc(Br)cc(OC)c1OC` [9a, 5-Bromo-N-(2-(ethyl(3-(4-(thiophen-2-yl)benzamido)propyl)amino)ethyl)-2,3-dimethoxybenzamide], for which the inhibition constant (Ki) (as a rule, the equilibrium dissociation constant of an inhibitor or competing ligand from its target) in test [1] is 222 nM; in test [2], 1450 nM; in test [3] it was 1560 nM; in test [4], 905 nM; in [5] it was 2350 nM; in test [6], 287 nM. In addition, the Ki in [7] came to 313 nM; in test [8] it was 187 nM; in test [9] it was 0.83 nM; in test [10], 195 nM; in [11], 1350 nM; in test [13], 107 nM. Besides, in [14], the Ki amounted to 87 nM. In addition, the “Ki (nM) or % inhibition at 10 µM: BZP Rat Brain Site” value in test [12] is reported as “N/A (N/A; not active means less than 50% inhibition that was obtained in primary binding assay at 10 µM of the compound)”.
For the compound `CCCN(CCCNC(=O)c1ccc(-c2cccs2)cc1)CCNC(=O)c1cc(Br)cc(OC)c1OC` [20a, 5-Bromo-2,3-dimethoxy-N-(2-(propyl(3-(4-(thiophen-2-yl)benzamido)propyl)amino)ethyl)benzamide], the Ki in [1] turned out to be 617 nM; in test [2], 9 nM; in test [3], 3020 nM; in test [4] it was 1050 nM; in [6], 258 nM; in test [7] it was 113 nM. The Ki in test [8] amounted to 170 nM; in test [9], 1.32 nM; in test [10] it was 103 nM; in test [11], 740 nM; in test [13] it was 116 nM; in test [14], 511 nM. Further, in test [2], the “Ki (nM) or % inhibition at 10 µM: Benzodiazepine receptor (PBR)” value (“Ki (nM) or % inhibition at 10 µM … (PBR)” below) is listed as “relatively high affinity”. For the same compound, in test [5], the inhibition – broadly, how much of the control response was suppressed – at 10 µM is less than 50%. Moreover, the “Ki (nM) or % inhibition at 10 µM: BZP Rat Brain Site” value in [12] is recorded as “N/A (N/A; not active means less than 50% inhibition that was obtained in primary binding assay at 10 µM of the compound)”.
As for `CCN(CCCNC(=O)c1ccc2ccccc2c1)CCNC(=O)c1cc(Br)cc(OC)c1OC` [21a, N-(3-((2-(5-Bromo-2,3-dimethoxybenzamido)ethyl)(ethyl)amino)propyl)-2-naphthamide], the Ki in test [1] stood at 1240 nM; in [2], 9 nM; in test [3], 1080 nM; in [6] it was 730 nM; in test [7], 195 nM; in test [8] it was 118 nM. The inhibition constant Ki in test [9] turned out to be 0.19 nM; in [10] it was 53 nM; in test [11], 1970 nM; in test [14], 89 nM. For the same compound, in [2], the “Ki (nM) or % inhibition at 10 µM … (PBR)” value is reported as “relatively high affinity”. For the same compound, the inhibition at 10 µM in test [4], in [5] and in test [13] was less than 50% each time. In addition, the “Ki (nM) or % inhibition at 10 µM: BZP Rat Brain Site” value in test [12] is “N/A (N/A; not active means less than 50% inhibition that was obtained in primary binding assay at 10 µM of the compound)”.
As for `CCN(CCCNC(=O)c1ccc(-c2ccncc2)cc1)CCNC(=O)c1cc(Br)cc(OC)c1OC` [21c, 5-Bromo-N-(2-(ethyl(3-(4-(pyridin-4-yl)benzamido)propyl)amino)ethyl)-2,3-dimethoxybenzamide], the Ki in [1] came to 727 nM; in test [5], 3390 nM; in [6], 1860 nM; in [7] it was 524 nM; in test [8], 157 nM; in test [9], 0.36 nM. Further, the Ki in test [10] came out at 58 nM; in test [11] it was 2580 nM; in [13], 642 nM; in test [14] it was 57 nM. For the same compound, the inhibition at 10 µM in [2] (read-out: Ki (nM) or % inhibition at 10 µM: Benzodiazepine receptor (PBR)), in [3] and in [4] was less than 50% each time. The “Ki (nM) or % inhibition at 10 µM: BZP Rat Brain Site” value in test [12] is given as “N/A (N/A; not active means less than 50% inhibition that was obtained in primary binding assay at 10 µM of the compound)”.
Consider `CCN(CCCNC(=O)c1cc2ccccc2[nH]1)CCNC(=O)c1cc(Br)cc(OC)c1OC` [21d, N-(3-((2-(5-Bromo-2,3-dimethoxybenzamido)ethyl)(ethyl)amino)propyl)-1H-indole-2-carboxamide], for which the Ki was 844 nM in [1]; 1220 nM in test [2]; 2410 nM in test [3]; more than 10000 nM in test [5]; 1630 nM in test [6]; 532 nM in [7]. In addition, the Ki in test [8] is 181 nM; in test [9], 0.25 nM; in test [10], 92 nM; in test [11], 2140 nM; in [13], 2330 nM; in test [14], 90 nM. In addition, the inhibition at 10 µM in test [4] was less than 50%. Besides, the “Ki (nM) or % inhibition at 10 µM: BZP Rat Brain Site” value in [12] is on record as “N/A (N/A; not active means less than 50% inhibition that was obtained in primary binding assay at 10 µM of the compound)”.
For `CCN(CCCNC(=O)c1cn2ccccc2n1)CCNC(=O)c1cc(Br)cc(OC)c1OC` [21e, N-(3-((2-(5-Bromo-2,3-dimethoxybenzamido)ethyl)(ethyl)amino)propyl)imidazo[1,2-a]pyridine-2-carboxamide], the Ki in test [1] came to 1330 nM; in test [2], 11 nM; in test [6] it was 2330 nM; in test [7], 1760 nM; in test [8], 443 nM; in test [9] it was 0.46 nM. Also, the figures for the Ki in [10] and in test [11] were 148 nM and 5570 nM, respectively. Besides, in [2], the “Ki (nM) or % inhibition at 10 µM … (PBR)” value was “relatively high affinity”. Also, the inhibition at 10 µM in test [3], in test [4], in test [5], in test [13] and in [14] (read-out: Ki (nM) or % inhibition at 10 µM: Dopamine active transporter (DAT)) was less than 50% in each case. Besides, the “Ki (nM) or % inhibition at 10 µM: BZP Rat Brain Site” value in [12] is on record as “N/A (N/A; not active means less than 50% inhibition that was obtained in primary binding assay at 10 µM of the compound)”.
